Results from patent US20260070945A1, “MACROCYCLIC IMMUNOMODULATORS” (Bristol-Myers Squibb Company, priority 2022, published 2026).
Where a SMILES comes first, the peptide text is derived from it. Bridges are numbered along the chain shown (N, C = ends). [ ]: non-standard residue; d: D form. The star is where a group is joined. ξ: configuration not given here. Phe(4-CONH2) = NC(=O)c1ccc(C[C@H](N)C(=O)O)cc1; Phe(4-COOH) = N[C@@H](Cc1ccc(C(=O)O)cc1)C(=O)O; Bip = N[C@@H](Cc1ccc(-c2ccccc2)cc1)C(=O)O; Phe(4-CN) = N#Cc1ccc(C[C@H](N)C(=O)O)cc1; Phe(3-Me) = Cc1cccc(C[C@H](N)C(=O)O)c1; Val(3-OH) = CC(C)(O)[C@H](N)C(=O)O; 4Pal = N[C@@H](Cc1ccncc1)C(=O)O; Cha = N[C@@H](CC1CCCCC1)C(=O)O; Cit = NC(=O)NCCC[C@H](N)C(=O)O; Ile(3ξ) = CCC(C)[C@H](N)C(=O)O; Thr(3ξ) = CC(O)[C@H](N)C(=O)O; 12Ado = NCCCCCCCCCCCC(=O)O; hSer = N[C@@H](CCO)C(=O)O; 4Abz = Nc1ccc(C(=O)O)cc1; Carboxymethyl = O=C(O)C*; NMeA = CN[C@@H](C)C(=O)O; Orn = NCCC[C@H](N)C(=O)O; Aun = NCCCCCCCCCCC(=O)O; Dab = NCC[C@H](N)C(=O)O; AEEA = NCCOCCOCC(=O)O; Piv = CC(C)(C)C(=O)*

Target: T1, PD-1/PD-L1 interaction (PE-labeled human PD-L1-Ig binding to Jurkat cell line over-expressing human PD-1) (Homo sapiens, UniProt Q15116)
T1 construct: expressed in transfected cells; host or cells: Jurkat
T1 sequence (Q15116 25-288): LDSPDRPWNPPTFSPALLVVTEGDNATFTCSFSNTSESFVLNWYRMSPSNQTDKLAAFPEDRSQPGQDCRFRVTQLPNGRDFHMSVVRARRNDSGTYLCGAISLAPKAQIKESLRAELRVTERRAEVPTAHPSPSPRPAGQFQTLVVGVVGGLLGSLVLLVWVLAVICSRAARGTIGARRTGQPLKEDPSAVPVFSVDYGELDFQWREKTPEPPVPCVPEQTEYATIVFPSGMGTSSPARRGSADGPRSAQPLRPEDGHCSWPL
Assay: Jurkat-PD-1 Cell Binding High-Content Screening Assay (CBA)
Settings: Jurkat-hPD-1 cells, PE-labeled PD-L1-Ig 20 nM final; read-out: Jurkat HPD1 PDL1 IC50
In short: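 Compound is added first to the PD-1-expressing Jurkat cells and held 2 h at 37 °C in serum-containing DMEM. The fluorescent PD-L1 fusion follows at 20 nM final for 1 h. Fixed, Hoechst-stained cells are then imaged for bound label.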

Row | SMILES | IC50 [nM]
1 | Cc1cccc(C[C@@H]2NC(=O)[C@H](CC(=O)O)NC(=O)[C@H](Cc3ccc(C(=O)O)cc3)NC(=O)[C@H](Cc3ccc(OCC(=O)O)cc3)NC(=O)CSC[C@@H](C(=O)NCCOCCOCC(=O)NCCCCCCCCCCCC(=O)O)NC(=O)[C@H](CCCCN)NC(=O)[C@H](C(C)C)NC(=O)[C@H](CC3CCCCC3)NC(=O)[C@H](Cc3cnc[nH]3)NC(=O)[C@@H](CC(C)C)NC(=O)[C@H](C)N(C)C(=O)[C@H](CCCNC(N)=O)NC(=O)[C@H](Cc3ccc(-c4ccccc4)cc3)NC(=O)[C@H](C(C)C)NC2=O)c1 [Example 2367] ({CH2CO}-Y(Carboxymethyl)[Phe(4-COOH)]D[Phe(3-Me)]V[Bip][Cit][NMeA][dL]H[Cha]VKC[AEEA][12Ado]-OH; thioether N-14) | 67.1
2 | CC(C)C[C@@H]1NC(=O)[C@H](Cc2c[nH]c3ccccc23)NC(=O)[C@H](CC(=O)O)NC(=O)[C@H](Cc2ccc(C(=O)O)cc2)NC(=O)[C@H](Cc2ccc(OCC(=O)O)cc2)NC(=O)CSC[C@@H](C(=O)N[C@@H](CCN)C(=O)NCCOCCOCC(=O)NCCCCCCCCCCC(=O)O)NC(=O)[C@H](CO)NC(=O)[C@H](C(C)(C)O)NC(=O)[C@H](CC2CCCCC2)NC(=O)[C@H](CCN)NC(=O)[C@@H](CC(C)C)NC(=O)[C@H](C)N(C)C(=O)[C@H](C(C)C)NC(=O)[C@H](Cc2ccc(-c3ccccc3)cc2)NC1=O [Example 1411] ({CH2CO}-Y(Carboxymethyl)[Phe(4-COOH)]DWL[Bip]V[NMeA][dL][Dab][Cha][Val(3-OH)]SC[Dab][AEEA][Aun]-OH; thioether N-14) | 9.7
3 | Cc1cccc(C[C@@H]2NC(=O)[C@H](CC(=O)O)NC(=O)[C@H](Cc3ccc(OCC(=O)O)cc3)NC(=O)[C@H](CCCNC(=N)N)NC(=O)CSC[C@@H](C(=O)N[C@@H](CCN)C(=O)NCCCCCCCCCCC(=O)O)NC(=O)[C@H](C(C)O)NC(=O)[C@H](C(C)C)NC(=O)[C@H](CC3CCCCC3)NC(=O)[C@H](CCN)NC(=O)[C@@H](CC(C)C)NC(=O)[C@H](C)N(C)C(=O)[C@H](Cc3ccc(OCC(=O)O)cc3)NC(=O)[C@H](Cc3ccc(-c4ccccc4)cc3)NC(=O)[C@H](Cc3ccc(OCC(=O)O)cc3)NC2=O)c1 (stereo partly drawn) [Example 2307] ({CH2CO}-RY(Carboxymethyl)D[Phe(3-Me)]Y(Carboxymethyl)[Bip]Y(Carboxymethyl)[NMeA][dL][Dab][Cha]V[Thr(3ξ)]C[Dab][Aun]-OH; thioether N-14) | 13.8
4 | Cc1cccc(C[C@@H]2NC(=O)[C@H](CC(=O)O)NC(=O)[C@H](Cc3ccc(C(=O)O)cc3)NC(=O)[C@H](CCN)NC(=O)CSC[C@@H](C(=O)N[C@@H](CCN)C(=O)NCCCCCCCCCCC(=O)O)NC(=O)[C@H](CO)NC(=O)[C@H](C(C)(C)O)NC(=O)[C@H](CC3CCCCC3)NC(=O)[C@H](CCN)NC(=O)[C@@H](CC(C)C)NC(=O)[C@H](C)N(C)C(=O)[C@H](Cc3ccc(OCC(=O)O)cc3)NC(=O)[C@H](Cc3ccc(-c4ccccc4)cc3)NC(=O)[C@H](Cc3ccc(C#N)cc3)NC2=O)c1 [Example 1300] ({CH2CO}-[Dab][Phe(4-COOH)]D[Phe(3-Me)][Phe(4-CN)][Bip]Y(Carboxymethyl)[NMeA][dL][Dab][Cha][Val(3-OH)]SC[Dab][Aun]-OH; thioether N-14) | 21.5
5 | COc1ccc(C[C@@H]2NC(=O)[C@H](Cc3cccc(C)c3)NC(=O)[C@H](CC(=O)O)NC(=O)[C@H](Cc3ccc(C(=O)O)cc3)NC(=O)[C@H](CCN)NC(=O)CSC[C@@H](C(=O)N[C@@H](CCN)C(=O)NCCCCCCCCCCC(=O)O)NC(=O)[C@H](CO)NC(=O)[C@H](C(C)(C)O)NC(=O)[C@H](CC3CCCCC3)NC(=O)[C@H](CCN)NC(=O)[C@@H](CC(C)C)NC(=O)[C@H](C)N(C)C(=O)[C@H](Cc3ccc(OCC(=O)O)cc3)NC(=O)[C@H](Cc3ccc(-c4ccccc4)cc3)NC2=O)cc1 [Example 1291] ({CH2CO}-[Dab][Phe(4-COOH)]D[Phe(3-Me)]Y(Me)[Bip]Y(Carboxymethyl)[NMeA][dL][Dab][Cha][Val(3-OH)]SC[Dab][Aun]-OH; thioether N-14) | 22.7
6 | CC(C)C[C@@H]1NC(=O)[C@H](Cc2c[nH]c3ccccc23)NC(=O)[C@H](CC(=O)O)NC(=O)[C@H](Cc2ccc(C(=O)O)cc2)NC(=O)[C@H](Cc2ccc(OCC(=O)O)cc2)NC(=O)CSC[C@@H](C(=O)NCCOCCOCC(=O)NCCCCCCCCCCC(=O)O)NC(=O)[C@H](CCO)NC(=O)[C@H](C(C)C)NC(=O)[C@H](CC2CCCCC2)NC(=O)[C@H](CCN)NC(=O)[C@@H](CC(C)C)NC(=O)[C@H](C)N(C)C(=O)[C@H](CCC(N)=O)NC(=O)[C@H](Cc2ccc(-c3ccccc3)cc2)NC1=O [Example 2244] ({CH2CO}-Y(Carboxymethyl)[Phe(4-COOH)]DWL[Bip]Q[NMeA][dL][Dab][Cha]V[hSer]C[AEEA][Aun]-OH; thioether N-14) | 38.6
7 | CC(C)C[C@@H]1NC(=O)[C@H](Cc2c[nH]c3ccccc23)NC(=O)[C@H](CC(=O)O)NC(=O)[C@H](Cc2ccncc2)NC(=O)[C@H](Cc2ccc(OCC(=O)O)cc2)NC(=O)CSC[C@@H](C(=O)Nc2ccc(C(=O)NCCCCCCCCCCC(=O)O)cc2)NC(=O)[C@H](CCCN)NC(=O)[C@H](C(C)C)NC(=O)[C@H](CC2CCCCC2)NC(=O)[C@H](CCN)NC(=O)[C@@H](CC(C)C)NC(=O)[C@H](C)N(C)C(=O)[C@H](C(C)C)NC(=O)[C@H](Cc2ccc(-c3ccccc3)cc2)NC1=O [Example 1213] ({CH2CO}-Y(Carboxymethyl)[4Pal]DWL[Bip]V[NMeA][dL][Dab][Cha]V[Orn]C[4Abz][Aun]-OH; thioether N-14) | 276
8 | Cc1cccc(C[C@@H]2NC(=O)[C@H](CC(=O)O)NC(=O)[C@H](Cc3ccc(OCC(=O)O)cc3)NC(=O)[C@H](Cc3ccc(OCC(=O)O)cc3)NC(=O)CSC[C@@H](C(=O)NCCOCCOCC(=O)NCCCCCCCCCCC(=O)O)NC(=O)[C@H](CCCNC(=N)N)NC(=O)[C@H](C(C)C)NC(=O)[C@H](CC3CCCCC3)NC(=O)[C@H](CCN)NC(=O)[C@@H](CC(C)C)NC(=O)[C@H](C)N(C)C(=O)[C@H](Cc3ccc(O)cc3)NC(=O)[C@H](Cc3ccc(-c4ccccc4)cc3)NC(=O)[C@H](CC(C)C)NC2=O)c1 [Example 2280] ({CH2CO}-Y(Carboxymethyl)Y(Carboxymethyl)D[Phe(3-Me)]L[Bip]Y[NMeA][dL][Dab][Cha]VRC[AEEA][Aun]-OH; thioether N-14) | 104
9 | Cc1cccc(C[C@@H]2NC(=O)[C@H](CC(=O)O)NC(=O)[C@H](Cc3ccc(OCC(=O)O)cc3)NC(=O)[C@H](CCNC(=O)C(C)(C)C)NC(=O)CSC[C@@H](C(=O)N[C@@H](CCN)C(=O)NCCCCCCCCCCC(=O)O)NC(=O)[C@H](CCC(N)=O)NC(=O)[C@H](C(C)C)NC(=O)[C@H](CC3CCCCC3)NC(=O)[C@H](CCN)NC(=O)[C@@H](CC(C)C)NC(=O)[C@H](C)N(C)C(=O)[C@H](Cc3ccc(OCC(=O)O)cc3)NC(=O)[C@H](Cc3ccc(-c4ccccc4)cc3)NC(=O)[C@H](Cc3ccc(C(=O)O)cc3)NC2=O)c1 [Example 1270] ({CH2CO}-[Dab](Piv)Y(Carboxymethyl)D[Phe(3-Me)][Phe(4-COOH)][Bip]Y(Carboxymethyl)[NMeA][dL][Dab][Cha]VQC[Dab][Aun]-OH; thioether N-14) | 61.9

Same assay, conditions: PE-labeled PD-L1-Ig 20 nM final, Jurkat-hPD-1 cells; read-out: Jurkat HPD1 PDL1 IC50

Row | SMILES | IC50 [nM]
10 | CCC(C)[C@@H]1NC(=O)[C@H](Cc2ccc(-c3ccccc3)cc2)NC(=O)[C@H](C(C)C)NC(=O)[C@H](Cc2c[nH]c3ccccc23)NC(=O)[C@H](CC(=O)O)NC(=O)[C@H](Cc2ccc(C(=O)O)cc2)NC(=O)[C@H](Cc2cnc[nH]2)NC(=O)CSC[C@@H](C(=O)N[C@@H](CCN)C(=O)NCCOCCOCC(=O)NCCCCCCCCCCC(=O)O)NC(=O)[C@H](CCC(=O)O)NC(=O)[C@H](C(C)(C)O)NC(=O)[C@H](CC2CCCCC2)NC(=O)[C@H](CCN)NC(=O)[C@@H](CC(C)C)NC(=O)[C@H](C)N(C)C1=O (stereo partly drawn) [Example 2531] ({CH2CO}-H[Phe(4-COOH)]DWV[Bip][Ile(3ξ)][NMeA][dL][Dab][Cha][Val(3-OH)]EC[Dab][AEEA][Aun]-OH; thioether N-14) | 1
11 | CC(C)C[C@@H]1NC(=O)[C@H](Cc2c[nH]c3ccccc23)NC(=O)[C@H](CC(=O)O)NC(=O)[C@H](Cc2ccc(OCC(=O)O)cc2)NC(=O)[C@H](Cc2ccc(OCC(=O)O)cc2)NC(=O)CSC[C@@H](C(=O)NCCOCCOCC(=O)NCCCCCCCCCCC(=O)O)NC(=O)[C@H](Cc2c[nH]cn2)NC(=O)[C@H](C(C)C)NC(=O)[C@H](CC2CCCCC2)NC(=O)[C@H](CCN)NC(=O)[C@@H](CC(C)C)NC(=O)[C@H](C)N(C)C(=O)[C@H](C(C)C)NC(=O)[C@H](Cc2ccc(-c3ccccc3)cc2)NC1=O [Example 2442] ({CH2CO}-Y(Carboxymethyl)Y(Carboxymethyl)DWL[Bip]V[NMeA][dL][Dab][Cha]VHC[AEEA][Aun]-OH; thioether N-14) | 37.9
12 | CC(=O)NCCCC[C@@H]1NC(=O)[C@H](C(C)(C)O)NC(=O)[C@H](CC2CCCCC2)NC(=O)[C@H](CCN)NC(=O)[C@@H](CC(C)C)NC(=O)[C@H](C)N(C)C(=O)[C@H](CCC(=O)O)NC(=O)[C@H](Cc2ccc(-c3ccccc3)cc2)NC(=O)[C@H](Cc2ccc(C(N)=O)cc2)NC(=O)[C@H](Cc2cccc(C)c2)NC(=O)[C@H](CC(=O)O)NC(=O)[C@H](Cc2ccc(OCC(=O)O)cc2)NC(=O)[C@H](Cc2ccc(OCC(=O)O)cc2)NC(=O)CSC[C@@H](C(=O)N[C@@H](CCN)C(=O)NCCOCCOCC(=O)NCCCCCCCCCCC(=O)O)NC1=O [Example 2532] ({CH2CO}-Y(Carboxymethyl)Y(Carboxymethyl)D[Phe(3-Me)][Phe(4-CONH2)][Bip]E[NMeA][dL][Dab][Cha][Val(3-OH)]K(Ac)C[Dab][AEEA][Aun]-OH; thioether N-14) | 1.4
